Legend:
A. baumannii LMG = experiment: Assay 4: boosting of antibiotic activity by EPI example 37 in A. baumannii; assay type: cell-based, Acinetobacter baumannii; conditions: MIC of the named antibiotic boosted by 100 μM example 37
Excerpt: (§1) Escherichia coli BW25113 (CGSC 7636) and its derivatives E. coli ΔtolC (JW5503-1, ΔtolC732::kan, CGSC 11430), E. coli ΔacrA (JW0452-3, ΔacrA748::kan, CGSC 11843) and E. coli ΔacrB (JW0451-2, ΔacrB747::kan, CGSC 8609) were obtained from E. coli Genetic Stock Center (CGSC, New Haven, Connecticut) and originated from the Keio Collection (Baba T et al, Mol Sys Biol, 2006). Klebsiella pneumoniae (LMG 2095/ATCC 13883) and K. pneumoniae (ATCC43816), Pseudomonas aeruginosa (PAO1), Acinetobacter baumannii (LMG 1025, ATCC 17978), were obtained from ATCC or BCCM/LMG Bacteria Collection. All bacteria were grown and tested in cation-adjusted Mueller-Hinton broth (CAMHB; BD Difco) at 37° C. For conservation, log phase bacteria were frozen (−80° C.) in CAMHB supplemented with 15% glycerol.
(§2) Measurement of the Impact of EPI Example 37 on the Boosting of Antibiotic Activity in E. coli, A. baumannii, K. pneumoniae and P. aeruginosa.
(§3) Bacterial suspensions were then prepared in CAMHB from a growing pre-culture, (E. coli [OD600=0.001], A. baumannii [OD600=0.001], K. pneumoniae [OD600=0.001] and P. aeruginosa [OD600=0.001]), and added to the microplate using a ViaFill. Microplate containing bacterial cultures were then grown (5 h or 24 h, 37° C.) and bacterial viability determined by either resazurin reduction or OD600.

K. pneumoniae ATCC13883 = experiment: Assay 4: boosting of antibiotic activity by EPI example 37 in K. pneumoniae ATCC13883; assay type: cell-based, Klebsiella pneumoniae; conditions: MIC of the named antibiotic boosted by 100 μM example 37
Excerpt: as §1, §2, §3

E. coli BW25113 = experiment: Assay 4: boosting of antibiotic activity by EPI example 37 in E. coli; assay type: cell-based, Escherichia coli; conditions: MIC of the named antibiotic boosted by 100 μM example 37
Excerpt: as §1, §2, §3

P. aeruginosa PAO1 = experiment: Assay 4: boosting of antibiotic activity by EPI example 37 in P. aeruginosa; assay type: cell-based, Pseudomonas aeruginosa; conditions: MIC of the named antibiotic boosted by 100 μM example 37
Excerpt: as §1, §2, §3

K. pneumoniae ATCC43816 = experiment: Assay 4: boosting of antibiotic activity by EPI example 37 in K. pneumoniae ATCC43816; assay type: cell-based, Klebsiella pneumoniae; conditions: MIC of the named antibiotic boosted by 100 μM example 37
Excerpt: as §1, §2, §3

[1] = system: A. baumannii LMG 1025 (ATCC 17978); experiment: Assay 2: growth inhibition of A. baumannii by sub-inhibitory chloramphenicol in combination with examples (resazurin reduction); assay type: cell-based; conditions: Acinetobacter baumannii; antibiotic alone, no EPI
[2] = system: A. baumannii LMG 1025 (ATCC 17978); experiment: Assay 3: growth inhibition of A. baumannii by sub-inhibitory novobiocin in combination with examples (resazurin reduction); assay type: cell-based; conditions: Acinetobacter baumannii; antibiotic alone, no EPI

CC(=O)NC[C@H]1CN(c2ccc(N3CCOCC3)c(F)c2)C(=O)O1 [Linezolid (LIN), Linezolid]
A. baumannii LMG Fold Boosted MIC By 100 μM example 37 (A. baumannii LMG): * (* = 2-3.9 fold)
K. pneumoniae ATCC13883 Fold Boosted MIC By 100 μM example 37 (K. pneumoniae ATCC13883): *** (*** = 8 fold +)
E. coli BW25113 Fold Boosted MIC By 100 μM example 37 (E. coli BW25113): *** (*** = 8 fold +)
P. aeruginosa PAO1 Fold Boosted MIC By 100 μM example 37 (P. aeruginosa PAO1): * (* = 2-3.9 fold)
K. pneumoniae ATCC43816 Fold Boosted MIC By 100 μM example 37 (K. pneumoniae ATCC43816): *** (*** = 8 fold +)

O=C(N[C@H](CO)[C@H](O)c1ccc([N+](=O)[O-])cc1)C(Cl)Cl [chloramphenicol]
A. baumannii LMG Fold Boosted MIC By 100 μM example 37 (A. baumannii LMG): * (* = 2-3.9 fold)
K. pneumoniae ATCC13883 Fold Boosted MIC By 100 μM example 37 (K. pneumoniae ATCC13883): ** (** = 4-7.9 fold)
E. coli BW25113 Fold Boosted MIC By 100 μM example 37 (E. coli BW25113): *** (*** = 8 fold +)
K. pneumoniae ATCC43816 Fold Boosted MIC By 100 μM example 37 (K. pneumoniae ATCC43816): * (* = 2-3.9 fold)
MIC90 [1]: 25 to 100 µg/mL

CO[C@@H]1[C@@H](OC(N)=O)[C@@H](O)[C@H](Oc2ccc3c(O)c(NC(=O)c4ccc(O)c(CC=C(C)C)c4)c(=O)oc3c2C)OC1(C)C [novobiocin]
MIC90 [2]: 12.5 µg/mL
K. pneumoniae ATCC13883 Fold Boosted MIC By 100 μM example 37 (K. pneumoniae ATCC13883): *** (*** = 8 fold +)
E. coli BW25113 Fold Boosted MIC By 100 μM example 37 (E. coli BW25113): *** (*** = 8 fold +)
K. pneumoniae ATCC43816 Fold Boosted MIC By 100 μM example 37 (K. pneumoniae ATCC43816): ** (** = 4-7.9 fold)
